Reference: PMC3855971, “Study of Possible Mechanisms Involved in the Inhibitory Effects of Coumarin Derivatives on Neutrophil Activity” (Oxidative Medicine and Cellular Longevity, 2013)

Experiments:
[1] = tested on: human neutrophils; test: Cytotoxicity by ATP liberation (luciferin-luciferase chemiluminescence); assay type: cell-based; conditions: 1, 10, and 100 μmol/L
Method: The cytotoxic effect of HHC and HHDC was evaluated by means of ATP liberation by the luciferin-luciferase chemiluminescence. The neutrophil suspension (30 μL; 30 000 cells/sample) and 20 μL of Tyrode's solution were incubated with 50 μL of HHC or HHDC (1–100 μmol/L) for 15 min at 37°C. Ten microliters of a mixture of luciferin (1.6 μg/sample) and luciferase (45 000 U/sample) was added, and the chemiluminescence was recorded for 60 s. In each experiment, the chemiluminescence of ATP standards (1–500 nmol/L) was measured and the concentrations of ATP in samples were calculated from the calibration curve. The total ATP content was assessed immediately after sonication of neutrophils for 10 s.

[2] = tested on: extracellular ROS production in PMA stimulated human neutrophils; test: Extracellular chemiluminescence (isoluminol/HRP) of PMA stimulated neutrophils; assay type: cell-based; conditions: for Effect on extracellular ROS production: 0.01–100 μmol/L, PMA stimulated; for EC50: Homo sapiens, PMA 0.05 μmol/L, 37°C, isoluminol-enhanced CL integrated over 1800 s, mean ± SEM, read-out: EC50, extracellular chemiluminescence (50% inhibition of control CL); for EC50 / IC50: Neutrophil; for IC50: PMA stimulated human neutrophils, read-out: IC50 of control extracellular chemiluminescence
Method: (§1) The effect of HHC or HHDC (0.01, 0.1, 1, 10, and 100 μmol/L) on extra- and intracellular ROS production was measured in unstimulated and PMA (0.05 μmol/L) stimulated neutrophils (5 × 10^5/sample) by isoluminol-/luminol-enhanced chemiluminescence (CL). Extracellular CL was determined in the system containing isoluminol (5 μmol/L) and HRP (8 U/mL). Intracellular CL was measured with luminol (5 μmol/L) in the presence of the extracellular scavengers superoxide dismutase (100 U/mL) and catalase (2 000 U/mL). […] Data were based on integral values of CL over 1800 s, (RLU × s; RLU: relative light units).

[3] = tested on: intracellular ROS production in PMA stimulated human neutrophils; test: Intracellular chemiluminescence (luminol with superoxide dismutase and catalase) of PMA stimulated neutrophils; assay type: cell-based; conditions: for Effect on intracellular ROS production: 0.01–100 μmol/L, PMA stimulated; for EC50: Homo sapiens, PMA 0.05 μmol/L, 37°C, luminol-enhanced CL integrated over 1800 s, mean ± SEM, read-out: EC50, intracellular chemiluminescence (50% inhibition of control CL)
Method: as §1

[4] = Chemiluminescence assay in cell-free system; assay type: biochemical; conditions: luminol, hydrogen peroxide; for EC50: HRP, 37°C, CL over 10 minutes, mean ± SEM, read-out: EC50, cell free chemiluminescence (50% inhibition of control CL)
Method: In the cell-free system, luminol, horseradish peroxidase, and hydrogen peroxide were used for chemiluminescence generation. The 200 μL samples consisted of 50 μL aliquots: HRP (2 U/mL), luminol (10 μmol/L), HHC, or HHDC solutions in the concentrations of 1, 10, or 100 μmnol/L. The reaction was initiated by adding hydrogen peroxide at the final concentration of 100 μmol/L. The chemiluminescence responses were measured for 10 minutes at 37°C in a microplate luminometer Immunotech LM-01T (Czech Republic).

[5] = tested on: PKC; test: PKC activity assay (ELISA kit) in cytosol of PMA stimulated neutrophils; assay type: cell-based, human; conditions: for PKC activity (percentage of stimulated PMA control): 30 min incubation, PMA 0.15 μmol/L 3 min, mean ± SEM, n = 8
Method: PKC activity in the cytosol was detected by the modified method of Varga et al.. Isolated human neutrophils (5 × 10^5/mL) were incubated 30 min with HHC (1, 10, and 100 μmol/L) or HHDC (1, 10, and 100 μmol/L) at 37°C. Neutrophils were then stimulated with PMA (0.15 μmol/L, final concentration) at 37°C for 3 min. The reaction was stopped by addition of 10 vol of ice-cold PBS. After centrifugation (500 ×g, 4°C, 10 min) the cells were resuspended in sample buffer (20 mmol/L TRIS-HCl, 5 mmol/L EDTA, 1% Triton, 10% glycerol, and protease inhibitor cocktail), sonicated on ice, and centrifuged (14 000 ×g, 5 min, 4°C). The cytosolic fractions were transferred to a prechilled 1.5 mL microcentrifuge tube and stored at –70°C. Protein content of cytosol fraction was measured using Bradford Dye Reagent Detection Kit (Bio-Rad, USA). PKC activity was measured with a Nonradioactive Protein Kinase Assay kit (Assay Designs, Ann Arbor, MI, USA), which is based on a solid-phase enzyme-linked immunoabsorbent assay (ELISA), utilising a specific synthetic peptide as substrate for PKC and a polyclonal antibody recognizing the phosphorylated form of the substrate. The assay is developed with tetramethylbenzidine substrate and a colour develops in proportion to PKC phosphotransferase activity. The colour development was stopped with acid stop solution and the intensity of the colour was measured in a microplate reader at 450 nm. The data were expressed as relative kinase activity per 1 mg of protein.

[6] = target: T1, PKCδ (Homo sapiens, UniProt Q05655); test: Western blot, phosphorylation of PKCδ (Thr505) in PMA stimulated neutrophils; assay type: cell-based; conditions: 10 and 100 μmol/L, PMA 0.15 μmol/L
T1 construct: endogenous in cells; host or cells: isolated human neutrophils
Method: (§2) Phosphorylation of PKC isoenzymes α, βII, and δ, as well as NADPH oxidase subunit p40^phox, was detected using the method described by Jančinová et al..
(§3) The suspension of isolated neutrophils (100 μL) containing 5 × 10^6 cells was preincubated at 37°C for 60 seconds with different concentrations of HHC or HHDC (10, 100 μmol/L) prior to addition of PMA (0.15 μmol/L). Incubation with PMA (5 min) was stopped by using a solubilisation buffer (20 mmol/L Tris-HCl, 5 mmol/L EDTA, 1% Triton, 10% glycerol, 10 mmol/L NaF, 1 mmol/L sodium orthovanadate, 208 μmol/L AEBF, 0.17 μmol/L aprotinin, 8 μmol/L bestatin, 2.8 μmol/L E-64, 4 μmol/L leupeptin, and pH 7.4). The suspension was sonicated at 4°C for […] and centrifuged at 14 000 ×g at 4°C for 5 min to remove unbroken cells. […] From the two strips taken, one was detected for PKCα, βII (area between 60 and 100 kD) and the second for detection of β-actin (30–60 kD), which represented the internal control. […]
(§4) NADPH oxidase subunit p40^phox and PKC isoenzyme δ were detected in the same blots after their washing and incubation with 10x diluted stripping buffer (Reblot Plus Mild Solution, Millipore, Temecula, CA, USA) for 15 min and washed overnight in diluent buffer (1% bovine serum albumin in Tris buffered saline). […] Autoradiogram bands were quantified using the Image J programme. […]

[7] = tested on: NADPH oxidase subunit p40^phox; test: Western blot, phosphorylation of NADPH oxidase subunit p40phox (T154) in PMA stimulated neutrophils; assay type: cell-based, human; conditions: 10 and 100 μmol/L, PMA 0.15 μmol/L
Method: as §2, §3, §4

[8] = design: method as in PMID 21187835; conditions: cited from earlier work

T1 sequence (Q05655 whole entry): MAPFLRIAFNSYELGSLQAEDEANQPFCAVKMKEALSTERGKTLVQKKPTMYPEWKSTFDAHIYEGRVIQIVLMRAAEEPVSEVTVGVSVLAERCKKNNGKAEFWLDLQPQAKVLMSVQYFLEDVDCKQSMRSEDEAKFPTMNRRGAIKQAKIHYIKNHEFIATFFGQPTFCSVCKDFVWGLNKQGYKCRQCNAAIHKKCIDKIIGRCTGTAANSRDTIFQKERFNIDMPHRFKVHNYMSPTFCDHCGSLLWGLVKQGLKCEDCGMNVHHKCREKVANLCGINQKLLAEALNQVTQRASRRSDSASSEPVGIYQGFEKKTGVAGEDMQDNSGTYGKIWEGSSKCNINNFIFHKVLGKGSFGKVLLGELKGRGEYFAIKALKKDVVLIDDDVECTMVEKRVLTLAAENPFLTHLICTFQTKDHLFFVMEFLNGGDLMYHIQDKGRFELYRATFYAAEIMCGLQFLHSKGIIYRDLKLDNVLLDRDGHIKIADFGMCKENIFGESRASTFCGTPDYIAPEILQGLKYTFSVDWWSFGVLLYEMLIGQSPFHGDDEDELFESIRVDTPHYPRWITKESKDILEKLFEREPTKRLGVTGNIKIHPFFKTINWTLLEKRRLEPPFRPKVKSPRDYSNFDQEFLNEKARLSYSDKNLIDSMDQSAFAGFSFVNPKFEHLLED

Row | Compound | Effect on spontaneous ATP liberation (cytotoxicity) [1] | Effect on extracellular ROS production [2] | EC50 [2] [nM] | IC50 [2] [nM] | Effect on intracellular ROS production [3] | EC50 ([3]; Neutrophil) [µM] | IC50 ([3]; Neutrophil, PMA stimulated human neutrophils) [µM] | EC50 [4] [nM] | PKC activity (percentage of stimulated PMA control) ([5]; 1 μmol/L) [%] | PKC activity (percentage of stimulated PMA control) ([5]; 10 μmol/L) [%] | PKC activity (percentage of stimulated PMA control) ([5]; 100 μmol/L) [%] | Effect on phosphorylation of PKCδ [6] | Effect on phosphorylation of p40phox subunit [7] | IC50 ([4]; horseradish peroxidase, unit inferred, read-out: IC50, chemiluminescence generated by cell-free system) [nM] | Effect on PKC activity ([5]; 1, 10, and 100 μmol/L, PMA stimulated) | Partition coefficient, compared to that of HHC [8]
1 | O=c1oc2cc(O)ccc2cc1-c1ccc(O)cc1 [HHC, 7-Hydroxy-3-(4′-hydroxyphenyl) coumarin] | did not increase spontaneous ATP liberation | decreased significantly extracellular ROS production | 1040 ± 200 | 1040 ± 200 | decreased significantly intracellular ROS production | 5.24 ± 0.57 | 5.24 ± 0.57 | 590 ± 10 | 87.7 ± 4.2 | 74.8 ± 6.3 | 46.3 ± 1.8 | did not affect phosphorylation of PKCδ | failed to influence it |  |  | 
2 | O=C1Oc2cc(O)ccc2CC1c1ccc(O)cc1 (stereo not shown) [HHDC, 7-Hydroxy-3-(4′-hydroxyphenyl)-3,4-dihydrocoumarin] | did not increase spontaneous ATP liberation | decreased significantly extracellular ROS production | 1010 ± 130 | 1010 ± 130 | slightly effective only in the highest concentration tested | > 100 |  | 2470 ± 40 |  |  |  | did not affect phosphorylation of PKCδ | failed to influence it | 2470 ± 40 | did not significantly influence PKC activity | lower values of the partition coefficient
